From ChEMBL document CHEMBL3045406, “Enantioselective Relieving Activity of α-Methylbenzylphenylureas toward Bensulfuron-methyl Injury to Rice (Oryza sativa)” (Biosci Biotechnol Biochem, 1999)

What was measured:
[1] = system: Oryza sativa; assay: Relieving activity against bensulfuron-methyl induced injury to Oryza sativa (rice) assessed as growth rate at 10 uM (Rbv = 46 to 53%); type: functional
[2] = system: Oryza sativa; assay: Relieving activity against bensulfuron-methyl induced injury to Oryza sativa (rice) assessed as growth rate at 0.1 uM (Rbv = 46 to 53%); type: functional
[3] = system: Oryza sativa; assay: Safener indices, ratio of compound effect of Oryza sativa (rice) growth rate to relieving activity against bensulfuron-methyl induced injury to Oryza sativa growth rate at 0.1 uM
[4] = Hydrophobicity, log K of the compound; type: physicochemical; settings: octanol/water
[5] = system: Oryza sativa; assay: Safener indices, ratio of compound effect of Oryza sativa (rice) growth rate to relieving activity against bensulfuron-methyl induced injury to Oryza sativa growth rate at 10 uM
[6] = system: Oryza sativa; assay: Relieving activity against bensulfuron-methyl induced injury to Oryza sativa (rice) assessed as growth rate at 1 uM (Rbv = 46 to 53%); type: functional
[7] = system: Oryza sativa; assay: Effect on Oryza sativa (rice) assessed as growth rate at 10 uM relative to control; type: organism-based; settings: in vivo
[8] = system: Oryza sativa; assay: Effect on Oryza sativa (rice) assessed as growth rate at 1 uM relative to control; type: organism-based; settings: in vivo
[9] = system: Oryza sativa; assay: Safener indices, ratio of compound effect of Oryza sativa (rice) growth rate to relieving activity against bensulfuron-methyl induced injury to Oryza sativa growth rate at 1 uM
[10] = system: Oryza sativa; assay: Effect on Oryza sativa (rice) assessed as growth rate at 0.1 uM relative to control; type: organism-based; settings: in vivo

Row | Compound | log K [4] | Activity [7] | Activity [8] | Activity [10] | Activity [1] | Activity [2] | Ratio [3] | Ratio [5] | Activity [6] | Ratio [9]
1 | C[C@@H](NC(=O)Nc1cccc(F)c1)c1ccccc1 | 0.363 | 84% | 95% | 99% | 67% | 47% | -4 | 44 | 57% | 22
2 | C[C@H](NC(=O)Nc1cccc(F)c1)c1ccccc1 | 0.363 | 88% | 94% | 97% | 79% | 59% | 21 | 62 | 74% | 51
3 | C[C@@H](NC(=O)Nc1ccc(F)cc1)c1ccccc1 | 0.307 | 92% | 96% | 98% | 73% | 47% | -3 | 52 | 55% | 16
4 | C[C@H](NC(=O)Nc1ccc(F)cc1)c1ccccc1 | 0.307 | 85% | 97% | 96% | 86% | 51% | 7 | 74 | 72% | 47
5 | CC(=O)c1cccc(NC(=O)N[C@H](C)c2ccccc2)c1 | 0.245 | 73% | 88% | 98% | 62% | 50% | 5 | 41 | 57% | 25
6 | CC(=O)c1cccc(NC(=O)N[C@@H](C)c2ccccc2)c1 | 0.245 | 94% | 95% | 96% | 89% | 65% | 35 | 80 | 83% | 38
7 | CC(=O)c1ccc(NC(=O)N[C@H](C)c2ccccc2)cc1 | 0.227 | 84% | 93% | 96% | 79% | 49% | 4 | 65 | 59% | 27
8 | CC(=O)c1ccc(NC(=O)N[C@@H](C)c2ccccc2)cc1 | 0.227 | 96% | 99% | 99% | 86% | 60% | 24 | 74 | 81% | 63
9 | CCOC(=O)c1cccc(NC(=O)N[C@H](C)c2ccccc2)c1 | 0.419 | 88% | 94% | 99% | 87% | 57% | 15 | 77 | 74% | 51
10 | CCOC(=O)c1cccc(NC(=O)N[C@@H](C)c2ccccc2)c1 | 0.419 | 96% | 99% | 100% | 95% | 72% | 44 | 89 | 85% | 70
11 | CCOC(=O)c1ccc(NC(=O)N[C@H](C)c2ccccc2)cc1 | 0.415 | 92% | 100% | 101% | 89% | 56% | 11 | 79 | 78% | 56
12 | CCOC(=O)c1ccc(NC(=O)N[C@@H](C)c2ccccc2)cc1 | 0.415 | 92% | 97% | 99% | 92% | 76% | 53 | 86 | 87% | 76
13 | C[C@@H](NC(=O)Nc1cccc(C(F)(F)F)c1)c1ccccc1 | 0.542 | 70% | 72% | 82% | 68% | 57% | 26 | 50 | 63% | 41
14 | C[C@H](NC(=O)Nc1cccc(C(F)(F)F)c1)c1ccccc1 | 0.542 | 92% | 93% | 94% | 82% | 62% | 26 | 66 | 75% | 53
15 | C[C@@H](NC(=O)Nc1ccc(C(F)(F)F)cc1)c1ccccc1 | 0.537 | 82% | 89% | 93% | 67% | 59% | 22 | 42 | 74% | 53
16 | C[C@H](NC(=O)Nc1ccc(C(F)(F)F)cc1)c1ccccc1 | 0.537 | 94% | 94% | 94% | 93% | 67% | 36 | 86 | 85% | 72

More lines, main results first:

Row | log K [4] | Activity [7] | Activity [8] | Activity [10] | Compound | Activity [1] | Activity [2] | Ratio [3] | Ratio [5] | Activity [6] | Ratio [9]
17 | 0.211 | 95% | 99% | 104% | COc1ccc(NC(=O)N[C@@H](C)c2ccccc2)cc1 | 91% | 59% | 6 | 81 | 81% | 57
18 | 0.277 | 99% | 99% | 101% | COc1cccc(NC(=O)N[C@@H](C)c2ccccc2)c1 | 97% | 65% | 22 | 94 | 86% | 70
19 | 0.367 | 65% | 92% | 98% | C[C@H](NC(=O)Nc1ccccc1F)c1ccccc1 | 78% | 73% | 47 | 68 | 81% | 65
20 | 0.367 | 77% | 95% | 97% | C[C@@H](NC(=O)Nc1ccccc1F)c1ccccc1 | 76% | 47% | 3 | 62 | 64% | 32
21 | 0.343 | 96% | 105% | 100% | COc1ccccc1NC(=O)N[C@H](C)c1ccccc1 | 72% | 54% | -1 | 42 | 55% | -4
22 | 0.343 | 95% | 99% | 98% | COc1ccccc1NC(=O)N[C@@H](C)c1ccccc1 | 74% | 55% | 9 | 46 | 68% | 28
23 | 0.277 | 70% | 92% | 104% | COc1cccc(NC(=O)N[C@H](C)c2ccccc2)c1 | 73% | 54% | -5 | 57 | 63% | 27
24 | 0.211 | 93% | 101% | 109% | COc1ccc(NC(=O)N[C@H](C)c2ccccc2)cc1 | 78% | 53% | -11 | 56 | 58% | 7
25 | 0.432 | 89% | 95% | 96% | CC(=O)c1ccccc1NC(=O)N[C@H](C)c1ccccc1 | 71% | 46% | 1 | 49 | 51% | 10
26 | 0.432 | 96% | 97% | 100% | CC(=O)c1ccccc1NC(=O)N[C@@H](C)c1ccccc1 | 73% | 53% | 9 | 50 | 65% | 35
27 | 0.667 | 100% | 100% | 100% | CCOC(=O)c1ccccc1NC(=O)N[C@H](C)c1ccccc1 | 77% | 53% | 6 | 54 | 63% | 25
28 | 0.667 | 100% | 100% | 100% | CCOC(=O)c1ccccc1NC(=O)N[C@@H](C)c1ccccc1 | 67% | 50% | 0 | 34 | 60% | 21
